The subject of the assay is RAW264.7 macrophage cells. As to the kind of experiment: Fluorescent microscopy of RAW264.7 macrophages stimulated with LPS and IFN-γ. The settings on record: 500 nM. Format: cell-based, Mouse. The protocol:
The macrophage cells were incubated with Compound 27 at a concentration of 500 nM. Upper: Control; Lower: The macrophages were stimulated with LPS and IFN-γ for 14 hr. Left: Nuclear staining with Hoechst; Middle: Compound 27; Right: Merged.
Human SH-SY5Y neuroblastoma cells (ATCC, USA) were maintained in high glucose Dulbecco's Modified Eagle Medium (DMEM, Hyclone) supplemented with 10% fetal bovine serum (FBS, Gibco), 1% penicillin/streptomycin (PS, Gibco) and 1% L-glutamine (Gibco). Mouse C17.2 neural progenitor cells (ATCC, USA) were maintained in high glucose Dulbecco's Modified Eagle Medium supplemented with 8% fetal bovine serum (Gibco), 4% horse serum (Gibco), 1% penicillin/streptomycin and 1% L-glutamine. Mouse RAW264.7 macrophage cells (ATCC, USA) were maintained in high glucose Dulbecco's Modified Eagle Medium (DMEM, Hyclone) supplemented with 10% fetal bovine serum (Gibco), 1% penicillin/streptomycin (Gibco) and 1% L-glutamine.
Generally, cells were grown to confluence prior to experiment. Cells were incubated with Compounds) 6, 7, 8, 14, 20, 21, 24, 27, and 32, respectively for 1 hr, and then washed three times with PBS buffer.

The structures appear in SMILES notation.

As for `CC[N+]1=c2cc3c(cc2C(C)CC1(C)C)=C(c1ccc(C(=O)N(CC(=O)OC)CC(=O)OC)cc1C)c1ccc(N(C)c2ccc(O)cc2)cc1[Si]3(C)C` (centres unmarked) [Compound 27], the “fluorescence after treatment with stimulants” value (LPS and IFN-γ for 14 hr) is reported as “strongly induced”. Moreover, the “fluorescence in the absence of stimulants” value (control) is reported as “very weak fluorescence”.

The values are drawn from patent publication US20130196362A1, “DIARYLAMINE-BASED FLUOROGENIC PROBES FOR DETECTION OF PEROXYNITRITE” (THE UNIVERSITY OF HONG KONG, priority 2012, published 2013).
